A short description of data set [1]: logP determination by HPLC, reversed-phase column (C 18), EEC Directive 79/831 Annex V.A8. From the text: (a) Mobile phases for the determination in the acidic range: 0.1% aqueous phosphoric acid, acetonitrile; linear gradient from 10% acetonitrile to 90% acetonitrile—the corresponding measurement results are labelled in Table 1 with ^a).
(b) Mobile phases for the determination in the neutral range: 0.01 molar aqueous phosphate buffer solution, acetonitrile; linear gradient from 10% acetonitrile to 90% acetonitrile—the corresponding measurement results are labelled in Table 1 with ^b).

For data set [2], the system named is weeds. The experiment in a line: Pre-Emergence Test (Example A), activity against weeds. The class given is in vivo. The settings on record: soil sprayed about 24 hours after sowing, rated after three weeks. From the text:
(§1) Solvent: 5 parts by weight of acetone
(§2) Emulsifier: 1 part by weight of alkylaryl polyglycol ether
(§3) Seeds of the test plants are sown in normal soil.
0%=no effect (like untreated control)

The subject of data set [3] is crop plants, such as, for example, barley, wheat, rapeseed, soya and sugar beet. The experiment in a line: Pre-Emergence Test (Example A), tolerance by crop plants. The format is in vivo.
Source text: as §1, §2, §3

For data set [4], the system named is weeds. The experiment in a line: Post-Emergence Test (Example B), activity against weeds. The following applies: test plants of a height of 5-15 cm sprayed, rated after three weeks. The format is in vivo.
Source text: as §1, §2
(§4) After three weeks, the degree of damage to the plants is rated in % damage in comparison to the development of the untreated control.

Data set [5] has as its system crop plants, such as, for example, barley and wheat. The experiment in a line: Post-Emergence Test (Example B), tolerance by crop plants.
Source text: as §1, §2, §4

The mark [6] stands for this setting: a) acidic range: 0.1% aqueous phosphoric acid, acetonitrile gradient, HPLC C 18, 43° C.
The mark [7] stands for this setting: pre-emergence, barley, wheat, rapeseed, soya and sugar beet, rated after three weeks.
Setting [8] is: post-emergence, barley and wheat, rated after three weeks.

SMILES strings stand for the structures. Like-named read-outs stand apart in the source and are kept apart here.

On to `CCCCC(CC)C(=O)N(c1cc(-n2ncc(=O)n(C)c2=O)c(F)cc1C#N)S(=O)(=O)CC` (racemic) [Example 7], for which, in data set [1], the “logP a)” value is “m.p.: 140 °C logP = 3.53^a)”. Moreover, the “activity against weeds (degree of damage)” value (from here on “activity against weeds”) in data set [2] and in data set [4] was “very strong activity” throughout. The “tolerance by crop plants” value in data set [3] (in vivo) and in data set [5] (in vivo) was “essentially being tolerated well” each time.
For the compound `CCC(Oc1ccccc1)C(=O)N(c1cc(-n2ncc(=O)n(C)c2=O)c(F)cc1C#N)S(=O)(=O)CC` (racemic) [Example 33], the “logP a)” value in data set [1] was “m.p.: 128 °C logP = 3.12^a)”. The “activity against weeds” value in data set [2] and in data set [4] was “very strong activity” in each case. Also, the “tolerance by crop plants” value in data set [3] (in vivo) and in data set [5] (in vivo) was “essentially being tolerated well” each time.
With `CCS(=O)(=O)N(C(=O)C(C)c1c(Cl)cccc1Cl)c1cc(-n2ncc(=O)n(C)c2=O)c(F)cc1C#N` (racemic) [Example 34], the “logP a)” value in data set [1] (setting [6]) was “m.p.: 159 °C logP = 3.07^a)”.
In the case of `CCS(=O)(=O)N(C(=O)C1CCc2ccccc2O1)c1cc(-n2ncc(=O)n(C)c2=O)c(F)cc1C#N` (racemic) [Example 38], the “logP a)” value in data set [1] was “m.p.: 115 °C logP = 2.93^a)”.
On to `CCS(=O)(=O)N(C(=O)C(C)Oc1ccccc1)c1cc(-n2ncc(=O)n(C)c2=O)c(F)cc1C#N` (racemic) [Example 39], for which the “logP a)” value in data set [1] is “m.p.: 132 °C logP = 2.85^a)”. Also, the “activity against weeds” value in data set [2] and in data set [4] was “very strong activity” throughout. In addition, the “tolerance by crop plants” value in data set [3] (in vivo) and in data set [5] (in vivo) was “essentially being tolerated well” in each case.
Regarding `CCS(=O)(=O)N(C(=O)C(C)Cl)c1cc(-n2ncc(=O)n(C)c2=O)c(F)cc1C#N` (racemic) [Example 61], the “logP a)” value in data set [1] is listed as “logP = 2.38^a)”. In addition, the “activity against weeds” value in data set [2] and in data set [4] was “very strong activity” each time. Moreover, the “tolerance by crop plants” value in data set [3] (in vivo) and in data set [5] (in vivo) was “essentially being tolerated well” in each case.
For the compound `CCS(=O)(=O)N(C(=O)CCl)c1cc(-n2ncc(=O)n(C)c2=O)c(F)cc1C#N` [Example 4], the “logP a)” value in data set [1] is listed as “logP = 2.09^a)”. Further, the “activity against weeds” value in data set [2] and in data set [4] was “very strong activity” each time. The “tolerance by crop plants” value in data set [3] (in vivo) and in data set [5] (in vivo) was “essentially being tolerated well” each time.
Take `CCS(=O)(=O)N(C(=O)c1ccccc1F)c1cc(-n2ncc(=O)n(C)c2=O)c(F)cc1C#N` [Example 5]: the “logP a)” value in data set [1] is “m.p.: 176 °C logP = 2.52^a)”. Further, the “activity against weeds” value in data set [2] and in data set [4] was “very strong activity” each time. Besides, the “tolerance by crop plants” value in data set [3] (in vivo) and in data set [5] (in vivo) was “essentially being tolerated well” in each case.
On to `CCS(=O)(=O)N(C(=O)COc1ccc(Cl)cc1)c1cc(-n2ncc(=O)n(C)c2=O)c(F)cc1C#N` [Example 6], for which the “logP a)” value in data set [1] was “m.p.: 65 °C logP = 3.07^a)”. Further, the “activity against weeds” value in data set [2] and in data set [4] was “very strong activity” in each case. Moreover, the “tolerance by crop plants” value in data set [3] (in vivo) and in data set [5] (in vivo) was “essentially being tolerated well” in each case.
As to `CCS(=O)(=O)N(C(=O)C(C)(C)C)c1cc(-n2ncc(=O)n(C)c2=O)c(F)cc1C#N` [Example 10], the “logP a)” value in data set [1] is “logP = 2.71^a)”. For the same compound, the “activity against weeds” value in data set [2] and in data set [4] was “very strong activity” each time. Besides, the “tolerance by crop plants” value in data set [3] (in vivo) and in data set [5] (in vivo) was “essentially being tolerated well” each time.
As for `CCS(=O)(=O)N(C(=O)c1ccc(OC)cc1)c1cc(-n2ncc(=O)n(C)c2=O)c(F)cc1C#N` [Example 11], the “logP a)” value in data set [1] is “m.p.: 94 °C logP = 2.77^a)”. Moreover, in data set [2], the “activity against weeds” value is recorded as “very strong activity”. Moreover, the “tolerance by crop plants” value in data set [3] (setting [7]) is “essentially being tolerated well”.
With `CCS(=O)(=O)N(C(=O)C(C)C)c1cc(-n2ncc(=O)n(C)c2=O)c(F)cc1C#N` [Example 13], the “logP a)” value in data set [1] is “logP = 2.50^a)”. For the same compound, the “activity against weeds” value in data set [2] and in data set [4] was “very strong activity” each time. The “tolerance by crop plants” value in data set [3] (in vivo) and in data set [5] (in vivo) was “essentially being tolerated well” each time.
Consider `CCS(=O)(=O)N(C(=O)c1ccco1)c1cc(-n2ncc(=O)n(C)c2=O)c(F)cc1C#N` [Example 14], for which, in data set [1], the “logP a)” value was “m.p.: 90 °C logP = 2.31^a)”. The “activity against weeds” value in data set [2] and in data set [4] was “very strong activity” in each case. Moreover, the “tolerance by crop plants” value in data set [3] (in vivo) and in data set [5] (in vivo) was “essentially being tolerated well” in each case.
With `CCS(=O)(=O)N(C(=O)C1CCCCC1)c1cc(-n2ncc(=O)n(C)c2=O)c(F)cc1C#N` [Example 16], the “logP a)” value in data set [1] (setting [6]) is “m.p.: 182 °C logP = 2.46^a)”. In addition, the “activity against weeds” value in data set [2] and in data set [4] was “very strong activity” each time. The “tolerance by crop plants” value in data set [3] (setting [7]) and in data set [5] (setting [8]) was “essentially being tolerated well” each time.
Take `C/C=C/C(=O)N(c1cc(-n2ncc(=O)n(C)c2=O)c(F)cc1C#N)S(=O)(=O)CC` [Example 18]: the “logP a)” value in data set [1] (setting [6]) was “m.p.: 153 °C logP = 2.16^a)”. For the same compound, the “activity against weeds” value in data set [2] and in data set [4] was “very strong activity” each time. Moreover, the “tolerance by crop plants” value in data set [3] (setting [7]) and in data set [5] (setting [8]) was “essentially being tolerated well” throughout.
Consider `CCS(=O)(=O)N(C(=O)CC(C)(C)C)c1cc(-n2ncc(=O)n(C)c2=O)c(F)cc1C#N` [Example 19], for which, in data set [1], the “logP a)” value is given as “logP = 2.94^a)”. Besides, the “activity against weeds” value in data set [2] and in data set [4] was “very strong activity” throughout. Further, the “tolerance by crop plants” value in data set [3] (in vivo) and in data set [5] (in vivo) was “essentially being tolerated well” each time.
Regarding `C=CC(=O)N(c1cc(-n2ncc(=O)n(CCF)c2=O)c(F)cc1C#N)S(C)(=O)=O` [Example 62], the “logP a)” value in data set [1] (setting [6]) is “m.p.: 142 °C logP = 1.93^a)”.
Still for that read-out and setting: as for `C/C=C/C(=O)N(c1cc(-n2ncc(=O)n(CCF)c2=O)c(F)cc1C#N)S(C)(=O)=O` [Example 63], the entry is “m.p.: 85 °C logP = 2.12^a)”; as for `C=CC(=O)N(c1cc(-n2ncc(=O)n(CCF)c2=O)c(F)cc1C#N)S(=O)(=O)CCC` [Example 64], “m.p.: 142 °C logP = 2.46^a)”; as for `C=CC(=O)N(c1cc(-n2ncc(=O)n(CCF)c2=O)c(F)cc1C#N)S(=O)(=O)CC` [Example 65], “m.p.: 83 °C logP = 2.14^a)”.
With `CCS(=O)(=O)N(C(=O)c1cn(C)nc1C(F)(F)F)c1cc(-n2ncc(=O)n(C)c2=O)c(F)cc1C#N` [Example 67], the “logP a)” value in data set [1] was “m.p.: 199 °C logP = 2.54^a)”.
The same measure, in the same setting: as for `CCS(=O)(=O)N(C(=O)c1snnc1C)c1cc(-n2ncc(=O)n(C)c2=O)c(F)cc1C#N` [Example 68], the entry is “m.p.: 189 °C logP = 1.73^a)”; as for `CCS(=O)(=O)N(C(=O)N1CCCC1)c1cc(-n2ncc(=O)n(C)c2=O)c(F)cc1C#N` [Example 69], “m.p.: 192 °C logP = 2.05^a)”; as for `CCS(=O)(=O)N(C(=O)N(C(C)C)C(C)C)c1cc(-n2ncc(=O)n(C)c2=O)c(F)cc1C#N` [Example 71], “m.p.: 188 °C logP = 2.92^a)”.
For the compound `CCS(=O)(=O)N(C(=O)Oc1ccc(F)cc1)c1cc(-n2ncc(=O)n(C)c2=O)c(F)cc1C#N` [Example 74], the “logP a)” value in data set [1] was “m.p.: 202 °C logP = 2.85^a)”.
The same measure, in the same setting: as for `CCS(=O)(=O)N(C(=O)CCCc1ccc(OC)cc1)c1cc(-n2ncc(=O)n(C)c2=O)c(F)cc1C#N` [Example 76], the entry is “logP = 3.03^a)”.
Turning to `CCS(=O)(=O)N(C(=O)/C=C/c1ccc2c(c1)OCO2)c1cc(-n2ncc(=O)n(C)c2=O)c(F)cc1C#N` [Example 77], the “logP a)” value in data set [1] (setting [6]) was “m.p.: 141 °C logP = 2.72^a)”.
`CCS(=O)(=O)N(C(=O)CC(c1ccccc1)c1ccccc1)c1cc(-n2ncc(=O)n(C)c2=O)c(F)cc1C#N` [Example 78]: the “logP a)” value in data set [1] is “m.p.: 183 °C logP = 3.48^a)”.
In the case of `CCS(=O)(=O)N(C(=O)Cc1ccccc1OC)c1cc(-n2ncc(=O)n(C)c2=O)c(F)cc1C#N` [Example 80], the “logP a)” value in data set [1] was “m.p.: 140 °C logP = 2.70^a)”.
Regarding `CCS(=O)(=O)N(C(=O)Cc1cc(OC)ccc1OC)c1cc(-n2ncc(=O)n(C)c2=O)c(F)cc1C#N` [Example 81], the “logP a)” value in data set [1] was “m.p.: 192 °C logP = 2.66^a)”.
Consider `CCS(=O)(=O)N(C(=O)Cc1cccc(OC)c1)c1cc(-n2ncc(=O)n(C)c2=O)c(F)cc1C#N` [Example 82], for which, in data set [1], the “logP a)” value was “m.p.: 158 °C logP = 2.63^a)”.

The values above are taken from US6608004B2, “Substituted 2-aryl-1,2,4-triazine-3,5-di(thi)ones” (priority 1999, dated 2003).
